In patent US10779537B2, “1H-pyrrolopyridine compound, N-oxide thereof or salt thereof, agricultural and horticultural insecticide comprising the compound, and method for using the insecticide” (Nihon Nohyaku Co., Ltd., priority 2016, dated 2020):

Experiments:
Laodelphax striatellus = experiment: Insecticidal test on Laodelphax striatellus (rice seedling dip); type: in vivo; conditions: 192 h, rice seedlings dipped 30 seconds, ten 3rd-instar larvae, 8 days after inoculation, read-out: insecticidal efficacy (corrected mortality rate)
Source text: Insecticidal Test on Laodelphax striatellus
The condensed heterocyclic compounds represented by the general formula (1) of the present invention or salts thereof were separately dispersed in water and diluted to 500 ppm. Rice plant seedlings (variety: Nihonbare) were dipped in the agrochemical dispersions for 30 seconds. After air-dried, each seedling was put into a separate glass test tube and inoculated with ten 3rd-instar larvae of Laodelphax striatellus, and then the glass test tubes were capped with cotton plugs. At 8 days after the inoculation, the numbers of surviving larvae and dead larvae were counted, the corrected mortality rate was calculated according to the formula shown below, and the insecticidal efficacy was evaluated according to the criteria shown below. Corrected mortality rate (%)=100×(Survival rate in a non-treatment plot−Survival rate in a treatment plot)/Survival rate in a non-treatment plot [Math. 2] Corrected Mortality Rate A: the corrected mortality rate is 100%. B: the corrected mortality rate is 90 to 99%. C: the corrected mortality rate is 80 to 89%. D: the corrected mortality rate is 50 to 79%.

Plutella xylostella = experiment: Insecticidal test on Plutella xylostella (dip of Chinese cabbage seedlings with laid eggs); type: in vivo; conditions: 144 h, seedlings with laid eggs dipped about 30 seconds, 25° C., 6 days after dip treatment, criteria of Test Example 2, read-out: insecticidal efficacy (corrected mortality rate, hatched larvae)
Source text: Insecticidal Test on Plutella xylostella
Adults of Plutella xylostella were released onto Chinese cabbage seedlings and allowed to lay eggs thereon. At 2 days after the release of the adults, the Chinese cabbage seedlings with laid eggs were dipped for about 30 seconds in agrochemical dispersions diluted to 500 ppm, each of which contained a different condensed heterocyclic compound represented by the general formula (1) of the present invention as an active ingredient. After air-dried, the seedlings were kept in a thermostatic chamber at 25° C. At 6 days after the dip treatment, the number of hatched larvae per plot was counted, the mortality rate was calculated according to the formula shown below, and the insecticidal efficacy was evaluated according to the criteria of Test Example 2. This test was conducted in triplicate using 10 adults of Plutella xylostella per plot. Corrected mortality rate (%)=100×(Number of hatched larvae in a non-treatment plot−Number of hatched larvae in a treatment plot)/Number of hatched larvae in a non-treatment plot [Math. 3]

Structure (SMILES)	mortality at 500 ppm (Laodelphax striatellus) [%]	mortality at 500 ppm (Plutella xylostella) [%]
CCS(=O)(=O)c1cc(C(F)(F)F)cnc1-c1[nH]c2cc(C(F)(F)F)cnc2c1F [Compound 1-75, 2-(3-ethylsulfonyl-5-trifluoromethylpyridin-2-yl)-3-fluoro-6-trifluoromethyl-1H-pyrrolo[3,2-b]pyridine]	100	100
CCS(=O)(=O)c1cc(C(F)(F)F)cnc1-c1[nH]c2cc(C(F)(F)F)cnc2c1Cl [Compound 1-76, 2-(3-ethylsulfonyl-5-trifluoromethylpyridin-2-yl)-3-chloro-6-trifluoromethyl-1H-pyrrolo[3,2-b]pyridine]	100	100
CCS(=O)(=O)c1cc(C(F)(F)F)cnc1-c1[nH]c2cc(C(F)(F)F)cnc2c1Br [Compound 1-77, 2-(3-ethylsulfonyl-5-trifluoromethylpyridin-2-yl)-3-bromo-6-trifluoromethyl-1H-pyrrolo[3,2-b]pyridine]	100	100
CCS(=O)(=O)c1cc(C(F)(F)F)cnc1-c1c(Cl)c2ncc(C(F)(F)F)cc2n1C(C)=O [Compound 3-3, 1-acetyl-2-(3-ethylsulfonyl-5-trifluoromethylpyridin-2-yl)-3-chloro-6-trifluoromethyl-1H-pyrrolo[3,2-b]pyridine]	100	100
